Holding throughout (type): in vivo
Assay [1] relates to white blood cell count and classification in BALF of COPD model mouse. The assay can be described thus: Effect on white blood cell count and classification in BALF of COPD model mouse. The conditions noted are these: COPD mouse (LPS plus smoke exposure 30 days), ig 7 d, dose/kg: dexamethasone 1 mg, Test group 1 50, 2 25, 3 10, picrinine 10, vallesamine 6, scholaricine 7, 19-epi-scholaricine 2 mg, x ± SD. The procedure:
(§1) Animal source: 25˜30 g male ICR mouse, from laboratory animal department of Kunming Medical University, License No. SCXK (Dian) 2011-0004.
(§2) Method and route: lipopolysaccharide (LPS) plus smoke exposure was used for 30 days to induce mouse chronic obstructive pulmonary disease model; and after intragastrical administration for 7 d at a dose of 20 mL/kg, the animal was sacrificed at the eighth day.
(§3) Picrinine group (10 mg/kg), Vallesamine group (6.0 mg/kg), Scholaricine group (7.0 mg/kg), 19-epischolaricine group (2.0 mg/kg).
(§4) Sample preparation: all the samples were prepared by using 0.5% carboxymethylcellulose sodium (0.5% CMC-Na).
Group and dose: in Test group 1, the ratio of picrinine, vallesamine, scholaricine and 19-epischolaricine by weight was 48:40:29:10, and the other groups and doses thereof were as described in Example 10.
Test index: total number of white blood cells and inflammatory cell classification in bronchoalveolar lavage fluid (BALF) were used as indexes, and were determined by full-automatic hemocytometer.

Assay [2] has as its system CRP in serum in COPD model mouse. The assay can be described thus: Effect on CRP in serum in COPD model mouse. The note with it: ELISA, ig 7 d, dose/kg: dexamethasone 1 mg, Test group 1 50, 2 25, 3 10, picrinine 10, vallesamine 6, scholaricine 7, 19-epi-scholaricine 2 mg, x ± SD. The procedure: as §1, §2, §3, §4
Group and dose: in Test group 1, the ratio of picrinine, vallesamine, scholaricine and 19-epischolaricine by weight was 25:19:20:4, and the other groups and doses thereof were as described in Example 10.
Test index: CRP in serum was used as index, and was determined by enzyme linked immunosorbent assay.

Assay [3] relates to SOD in serum and homogenate of COPD model mouse. The assay can be described thus: Effect on SOD in serum and homogenate of COPD model mouse. The conditions noted are these: ig 7 d, dose/kg: dexamethasone 1 mg, Test group 1 50, 2 25, 3 10, picrinine 10, vallesamine 6, scholaricine 7, 19-epi-scholaricine 2 mg, x ± SD. Here is the method: as §1, §2, §3, §4
Group and dose: in Test group 1, the ratio of picrinine, vallesamine, scholaricine and 19-epischolaricine by weight was 16:11:12:3, and the other groups and doses thereof were as described in Example 10.
Test index: SOD in serum and lung homogenate was used as index, and was determined by xanthine oxidase method.

In assay [4] the test system is MDA in serum and homogenate of COPD model mouse. The assay can be described thus: Effect on MDA in serum and homogenate of COPD model mouse. The note with it: ig 7 d. The procedure:
as §1, §2, §3, §4
Group and dose: in Test group 1, the ratio of picrinine, vallesamine, scholaricine and 19-epischolaricine by weight was 9:6:5:1, and the other groups and doses thereof were as described in Example 10.
Test index: MDA in serum and homogenate was used as index, and was determined by thibabituric acid method.

For assay [5], the system named is IL-4 in BALF of asthma model mouse. The assay can be described thus: Effect on IL-4 in BALF of asthma model mouse. The note with it: ELISA, ig 7 d, dose/kg: dexamethasone 2.0 mg, Test group 1 50, 2 25, picrinine 5.0, vallesamine 3.0, scholaricine 3.0, 19-epi-scholaricine 3.5 mg, x ± SD. Here is the method:
as §1
(§5) Method and route: ovalbumin (OVA) was used to induce mouse asthma model, and after intragastrical administration for 7 d at a dose of 20 mL/kg, the animal was sacrificed at the eighth day.
(§6) Test group 1: picrinine, vallesamine, scholaricine and 19-epischolaricine prepared in Example 1.7 were homogeneously mixed at different ratios by weight (50 mg/kg), Test group 2: the alkaloid composition prepared in Example 1.4 (25 mg/kg). […]
as §4
Group and dose: in Test group 1, the ratio of picrinine, vallesamine, scholaricine and 19-epischolaricine by weight was 25:18:15:3, and the other groups and doses thereof were as described in Example 11. […]

In assay [6] the test system is SOD in serum and BALF of asthma model mouse. The assay can be described thus: Effect on SOD in serum and BALF of asthma model mouse. The note with it: ig 7 d, dose/kg: dexamethasone 2.0 mg, Test group 1 50, 2 25, picrinine 5.0, vallesamine 3.0, scholaricine 3.0, 19-epi-scholaricine 3.5 mg, x ± SD. The procedure:
as §1, §5, §6, §4
Group and dose: in Test group 1, the ratio of picrinine, vallesamine, scholaricine and 19-epischolaricine by weight was 12:10:9:2, and the other groups and doses thereof were as described in Example 11.
Test index: SOD in serum and BALF was used as index, and was determined by xanthine oxidase method.

In assay [7] the test system is MDA in serum and BALF of asthma model mouse. The assay can be described thus: Effect on MDA in serum and BALF of asthma model mouse. The note with it: ig 7 d, dose/kg: dexamethasone 2.0 mg, Test group 1 50, 2 25, picrinine 5.0, vallesamine 3.0, scholaricine 3.0, 19-epi-scholaricine 3.5 mg, x ± SD. The procedure:
as §1, §5, §6, §4
Group and dose: in Test group 1, the ratio of picrinine, vallesamine, scholaricine and 19-epischolaricine by weight was 8:6:5:1, and the other groups and doses thereof were as described in Example 11.
Test index: MDA in serum and BALF was used as index, and was determined by thiobarbituric acid method.

The test system of assay [8] is LDH in serum of pulmonary fibrosis model mouse. The assay can be described thus: Effect on LDH in serum of pulmonary fibrosis model mouse. The conditions noted are these: bleomycin pulmonary fibrosis mouse, ig 28 d, dose/kg: prednisone acetate 5 mg, Test group 1 50, 2 25, 3 12.5, picrinine 5.0, vallesamine 3.0, scholaricine 3.5, 19-epi-scholaricine 1.0 mg, x ± SD. The procedure: (§7) Animal source: 30˜35 g male ICR mouse, from laboratory animal department of Kunming Medical University, License No. SCXK (Dian) 2011-0004.
(§8) Method and route: bleomycin was used to induce mouse pulmonary fibrosis, and after intragastrical administration for 28 d at a dose of 20 mL/kg, the animal was sacrificed at the 29th day.
(§9) Group and dose: Sham group, Model group, Positive control group, prednisone acetate (5 mg/kg) group, Test group 1: picrinine, vallesamine, scholaricine and 19-epischolaricine prepared in Example 1.7 were mixed at different ratios by weight (50 mg/kg), Test group 2: the alkaloid composition (25 mg/kg) prepared in Example 1.5, Test group 3: the alkaloid composition (12.5 mg/kg) prepared in Example 1.6, Picrinine group (5.0 mg/kg), Vallesamine group (3.0 mg/kg), Scholaricine group (3.5 mg/kg), and 19-epischolaricine group (1.0 mg/kg).
(§10) Positive control drug: prednisone acetate tablet, Approval number: H33021207, 5 mg/tablet, produced by Zhejiang Xianju Pharmaceutical Co., Ltd., Batch No. 140146.
(§11) Sample preparation: all the samples were prepared by using 0.5% carboxymethylcellulose sodium (0.5% CMC-Na). […]
Test index: LDH in serum was used as index, and was determined by 2, 4-dinitrophenylhydrazine method.

For assay [9], the system named is Hyp in homogenate of pulmonary fibrosis model mouse. The assay can be described thus: Effect on Hyp in homogenate of pulmonary fibrosis model mouse. The note with it: bleomycin pulmonary fibrosis mouse, ig 28 d, dose/kg: prednisone acetate 5 mg, Test group 1 50, 2 25, 3 12.5, picrinine 5.0, vallesamine 3.0, scholaricine 3.5, 19-epi-scholaricine 1.0 mg, x ± SD. Here is the method: as §7, §8, §9, §10, §11
Test index: Hyp in homogenate was used as index, and was determined by enzyme linked immunosorbent assay.

Assay [10] has as its system KL-6 in serum of pulmonary fibrosis model mouse. The assay can be described thus: Effect on KL-6 in serum of pulmonary fibrosis model mouse. The conditions noted are these: ELISA, bleomycin pulmonary fibrosis mouse, ig 28 d, dose/kg: prednisone acetate 5 mg, Test group 1 50, 2 25, 3 12.5, picrinine 5.0, vallesamine 3.0, scholaricine 3.5, 19-epi-scholaricine 1.0 mg, x ± SD. The procedure:
as §7, §8, §9, §10, §4
Group and dose: in Test group 1, the ratio of picrinine, vallesamine, scholaricine and 19-epischolaricine by weight was 45:38:30:8, and the other groups and doses thereof were as described in Example 12.
Test index: KL-6 in serum was used as index, and was determined by enzyme linked immunosorbent assay.

Assay [11] concerns Col-1 in homogenate of pulmonary fibrosis model mouse. The assay can be described thus: Effect on Col-1 in homogenate of pulmonary fibrosis model mouse. The note with it: ELISA, bleomycin pulmonary fibrosis mouse, ig 28 d, dose/kg: prednisone acetate 5 mg, Test group 1 50, 2 25, 3 12.5, picrinine 5.0, vallesamine 3.0, scholaricine 3.5, 19-epi-scholaricine 1.0 mg, x ± SD. Here is the method: as §7, §8, §9, §10, §4
Group and dose: in Test group 1, the ratio of picrinine, vallesamine, scholaricine and 19-epischolaricine by weight was 20:17:17:4, and the other groups and doses thereof were as described in Example 12.
Test index: Col-1 in homogenate was used as index, and was determined by enzyme linked immunosorbent assay.

Assay [12] deals with SOD in serum and homogenate of pulmonary fibrosis model mouse. The assay can be described thus: Effect on SOD in serum and homogenate of pulmonary fibrosis model mouse. The conditions noted are these: bleomycin pulmonary fibrosis mouse, ig 28 d, dose/kg: prednisone acetate 5 mg, Test group 1 50, 2 25, 3 12.5, picrinine 5.0, vallesamine 3.0, scholaricine 3.5, 19-epi-scholaricine 1.0 mg, x ± SD. The procedure: as §7, §8, §9, §10, §4
Group and dose: in Test group 1, the ratio of picrinine, vallesamine, scholaricine and 19-epischolaricine by weight was 10:7:7:2, and the other groups and doses thereof were as described in Example 12.
Test index: SOD in serum and homogenate was used as index, and was determined by xanthine oxidase method.

Assay [13] deals with MDA in serum and homogenate of pulmonary fibrosis model mouse. The assay can be described thus: Effect on MDA in serum and homogenate of pulmonary fibrosis model mouse. The note with it: bleomycin pulmonary fibrosis mouse, ig 28 d, dose/kg: prednisone acetate 5 mg, Test group 1 50, 2 25, 3 12.5, picrinine 5.0, vallesamine 3.0, scholaricine 3.5, 19-epi-scholaricine 1.0 mg, x ± SD. The procedure:
as §7, §8, §9, §10, §4
Group and dose: in Test group 1, the ratio of picrinine, vallesamine, scholaricine and 19-epischolaricine by weight was 8:5:5:1, and the other groups and doses thereof were as described in Example 12.
Test index: MDA in serum and homogenate was used as index, and was determined by thiobabituric acid method.

As to `COC(=O)C1=C2Nc3c(O)cccc3[C@@]23CCN2C[C@@H]([C@@H](C)O)[C@@H]1C[C@H]23` [scholaricine], the Leukocyte number in assay [1] is listed as 2.5 ± 3.5 ×10^5/mL. Moreover, the Neutrophil number in assay [1] was 0.66 ± 0.81 ×10^5/mL. This compound also displayed a CRP in assay [2] of 24.4 ± 2.4 pg/mL. The compound also had an SOD homogenate in assay [3] (lung homogenate) of 58.43 ± 7.04 U/mL. The entries for the “SOD Serum” value in assay [3] (serum) and in [6] (serum) were 93.61 ± 12.37 U/mL and 73.36 ± 8.44 U/mL, respectively. In addition, the “content of MDA (serum or homogenate not given)” value in [4] (vallesamine 6, scholaricine 7, 19-epi-scholaricine 2 mg/kg) is reported as “significantly decrease”. Besides, in assay [4] (lung homogenate, dose/kg: dexamethasone 1 mg, Test group 1 50, 2 25, 3 10, picrinine 10, vallesamine 6, scholaricine 7, 19-epi-scholaricine 2 mg, x ± SD), the “MDA Homogenate” value was determined as 6.09 ± 1.25 nmol/mL. Besides, the “MDA Serum” value in assay [4] (serum, dose/kg: dexamethasone 1 mg, Test group 1 50, 2 25, 3 10, picrinine 10, vallesamine 6, scholaricine 7, 19-epi-scholaricine 2 mg, x ± SD) is on record as 12.21 ± 3.38 nmol/mL; in assay [7] (serum), 9.19 ± 2.77 nmol/mL. The IL-4 in assay [5] came out at 11.21 ± 3.62 pg/mL. This compound also showed an SOD lavage fluid in assay [6] (BALF) of 76.78 ± 8.01 U/mL. In assay [7] (BALF), this compound showed an MDA lavage fluid of 2.43 ± 1.05 nmol/mL. In [8], this compound returned an LDH of 12.5 ± 3.2 U/g prot. This compound gave a Hyp in assay [9] of 6.5 ± 1.5 μg/g prot.
As to `CC(=O)OCC(=O)[C@@]1(O)CC[C@H]2[C@@H]3CCC4=CC(=O)C=C[C@]4(C)[C@H]3C(=O)C[C@@]21C` [prednisone acetate, reference compound], the KL-6 in assay [10] came to 3.00 ± 1.00 U/mg prot. The LDH in [8] was determined as 10.5 ± 3.4 U/g prot. The compound also yielded a Col-1 in [11] of 6.0 ± 2.1 μg/g prot. The compound also gave a Hyp in assay [9] of 2.9 ± 0.8 μg/g prot. In assay [12] (homogenate), the “SOD homogenate” value was found to be 60.0 ± 15.9 U/mg prot. Further, the “SOD Serum” value in assay [12] (serum) amounted to 15.5 ± 3.8 U/mg prot. In addition, in [13] (homogenate), the “MDA Homogenate” value is listed as 19.0 ± 6.6 nmol/mg prot. Further, in assay [13] (serum), the “MDA Serum” value came to 0.55 ± 0.17 nmol/mg prot.

The values above are taken from patent US10603345B2, “Pharmaceutical composition for treating respiratory disease” (Kunming Institute of Botany, The Chinese Academy of Sciences, priority 2015, dated 2020).
